Results taken from patent publication US6525001B1, “Substituted pyrimidine and pyridine herbicides” (Mid-American Commercialization Corporation, priority 1997, dated 2003).

SMILES	melting point
Cc1cnc(-n2ccc(C(F)(F)F)n2)nc1C(=O)c1cccc(C(F)(F)F)c1 [Example 4, [5-methyl-2-[3-(trifluoromethyl)-1H-pyrazol-1-yl]-4-pyrimidinyl][3-(trifluoromethyl)phenyl]methanone]	82 to 91 °C
Cc1cnc(-c2ccc(C(F)(F)F)cc2)nc1C(=O)c1cccc(C(F)(F)F)c1 [Example 5, [5-methyl-2-[4-(trifluoromethyl)phenyl]-4-pyrimidinyl][3-(trifluoromethyl)phenyl]methanone]	98 to 100 °C
